# Experimental data published in patent US10801035B2, “Plants having increased tolerance to herbicides” (BASF SE, priority 2011, dated 2020).
# What was measured:
# Assay type in all cases: biochemical
# [1] = target: T1, Hordeum HPPD (SEQ ID: 1/2) (Hordeum vulgare, UniProt O48604, A164G/R146V/R147D/R148G); experiment: HPPD activity assay, wildtype Hordeum HPPD; conditions: for Ki: Cheng-Prusoff from IC50, read-out: Ki (dissociation constant); for TI (tolerance index): not normalized
# T1 construct: His6; made in house; host or cells: E. coli BL21 (DE3)
# T1 sequence (O48604 whole entry R146V/R147D/R148G/A164G): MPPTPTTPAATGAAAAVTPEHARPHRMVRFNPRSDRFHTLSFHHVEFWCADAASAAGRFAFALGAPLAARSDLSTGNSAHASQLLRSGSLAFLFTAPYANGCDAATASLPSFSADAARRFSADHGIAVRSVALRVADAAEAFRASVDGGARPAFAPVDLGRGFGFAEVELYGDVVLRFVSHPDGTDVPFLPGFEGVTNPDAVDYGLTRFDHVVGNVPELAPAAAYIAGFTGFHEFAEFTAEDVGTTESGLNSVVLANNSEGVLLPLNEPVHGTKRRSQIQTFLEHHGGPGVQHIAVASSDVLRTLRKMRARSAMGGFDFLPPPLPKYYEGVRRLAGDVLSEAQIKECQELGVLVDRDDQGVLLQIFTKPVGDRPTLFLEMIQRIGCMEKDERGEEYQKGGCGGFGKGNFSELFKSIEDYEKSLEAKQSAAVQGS
# Procedure: (§1) HPPD produces homogentisic acid and CO2 from 4-hydroxyphenylpyruvate (4-HPP) and O2. The activity assay for HPPD is based on the analysis of homogentisic acid by reversed phase HPLC.
# (§2) The assay mixture can contain 150 mM potassium phosphate buffer pH 7.0, 50 mM L-ascorbic acid, 1 μM FeSO4 and 7 μg of purified enzyme in a total volume of 1 ml. Inhibitors are dissolved in DMSO (dimethylsulfoxide) to a concentration of 20 mM or 0.5 mM, respectively. From this stock solution serial five-fold dilutions are prepared in DMSO, which are used in the assay. The respective inhibitor solution accounts for 1% of the assay volume. Thus, final inhibitor concentrations range from 200 μM to 2.5 nM or from 5 μM to 63 pM, respectively. After a preincubation of 30 min the reaction is started by adding 4-HPP to a final concentration of 0.1 mM. The reaction is allowed to proceed for 120 min at room temperature. The reaction is stopped by addition of 100 μl of 4.5 M phosphoric acid.
# Activities are normalized by setting the uninhibited enzyme activity to 100%. […] values are calculated using non-linear regression.
# The assay mixture can contain 150 mM potassium phosphate buffer pH 7.0, 50 mM L-ascorbic acid, 100 μM Catalase (Sigma-Aldrich), 1 μM FeSO4 and 0.2 units of purified HPPD enzyme in a total volume of 505 μl. 1 unit is defined as the amount of enzyme that is required to produce 1 nmol of HGA per minute at 20° C.
# Inhibitors are dissolved in DMSO (dimethylsulfoxide) to a concentration of 0.5 mM. From this stock solution serial five-fold dilutions are prepared in DMSO, which are used in the assay. The respective inhibitor solution accounts for 1% of the assay volume. Thus, final inhibitor concentrations range from 5 μM to 320 pM, respectively. Activities are normalized by setting the uninhibited enzyme activity to 100%. IC50 values are calculated using non-linear regression.
# Using methods which are described in the above examples or well known in the art, purified, recombinant wildtype HPPD enzymes are characterized with respect to their kinetic properties and sensitivity towards HPPD inhibiting herbicides. Apparent michaelis constants (Km) and maximal reaction velocities (Vmax) are calculated by non-linear regression with the software GraphPad Prism 5 (GraphPad Software, La Jolla, USA) using a substrate inhibition model. Apparent kcat values are calculated from Vmax assuming 100% purity of the enzyme preparation. Weighted means (by standard error) of Km and […] values are calculated from at least three independent experiments. The Cheng-Prusoff equation for competitive inhibition (Cheng, Y. C.; Prusoff, W. H. Biochem Pharmacol 1973, 22, 3099-3108) is used to calculate dissociation constants (Ki).
# Field performance of the HPPD enzyme, which is used as a herbicide tolerance trait may depend not only on its lack of sensitivity towards HPPD inhibiting herbicides but also on its activity. To assess the potential performance of a herbicide tolerance trait a tolerance index (TI) is calculated using the following formula: […]
# Easy comparison and ranking of each trait is enabled by normalizing every tolerance index on Hordeum HPPD.
# Rhodococcus HPPD1 = experiment: HPPD activity assay, Rhodococcus HPPD1; conditions: normalized on Hordeum HPPD
# Procedure: as §1
# The assay mixture can contain 150 mM potassium phosphate buffer pH 7.0, 50 mM L-ascorbic acid, 1 μM FeSO4 and 7 μg of purified enzyme in a total volume of 1 ml. Inhibitors are dissolved in DMSO (dimethylsulfoxide) to a concentration of 20 mM or 0.5 mM, respectively. From this stock solution serial five-fold dilutions are prepared in DMSO, which are used in the assay. The respective inhibitor solution accounts for 1% of the assay volume. […]
# Activities are normalized by setting the uninhibited enzyme activity to 100%. […] values are calculated using non-linear regression. […]
# (§3) Inhibitors are dissolved in DMSO (dimethylsulfoxide) to a concentration of 0.5 mM. […] IC50 values are calculated using non-linear regression.
# Using methods which are described in the above examples or well known in the art, purified, recombinant wildtype HPPD enzymes are characterized with respect to their kinetic properties and sensitivity towards HPPD inhibiting herbicides. Apparent michaelis constants (Km) and maximal reaction velocities (Vmax) are calculated by non-linear regression with the software GraphPad Prism 5 (GraphPad Software, La Jolla, USA) using a substrate inhibition model. […]
# [2] = target: T2, Hordeum HPPD variant G407C (Hordeum vulgare, UniProt O48604, A164G/G407C/R146V/R147D/R148G); experiment: HPPD activity assay, Hordeum HPPD mutant G407C; conditions: normalized on wildtype
# T2 construct: His6; made in house; host or cells: E. coli BL21 (DE3)
# T2 sequence (O48604 whole entry R146V/R147D/R148G/A164G/G407C): as the sequence (O48604 whole entry R146V/R147D/R148G/A164G) above, with G407C counted along it
# Procedure: as §1
# as §2, with “The reaction is allowed to proceed for 120 min at room temperature. The reaction is stopped by addition of 100 μl of 4.5 M phosphoric acid.” left out
# as §3
# (§4) Purified, mutant HPPD enzymes are obtained by the methods described above. […] Apparent michaelis constants (Km) and maximal reaction velocities (Vmax) are calculated by non-linear regression with the software GraphPad Prism 5 (GraphPad Software, La Jolla, USA) using a substrate inhibition model. […] Weighted means (by standard error) of Km and […] values are calculated from at least three independent experiments. […]
# [3] = target: T3, Hordeum HPPD variant L353M, P321R, L320N (Hordeum vulgare, UniProt O48604, L320N/L353M/P321R); experiment: HPPD activity assay, Hordeum HPPD mutant L353M, P321R, L320N; conditions: normalized on wildtype
# T3 construct: His6; made in house; host or cells: E. coli BL21 (DE3)
# T3 sequence (O48604 whole entry R146V/R147D/R148G/A164G/L320N/P321R/L353M): as the sequence (O48604 whole entry R146V/R147D/R148G/A164G) above, with L320N, P321R, L353M counted along it
# Procedure: as §1
# as §2, with “The reaction is allowed to proceed for 120 min at room temperature. The reaction is stopped by addition of 100 μl of 4.5 M phosphoric acid.” left out
# as §3, §4
# [4] = target: T4, Hordeum HPPD variant L353M, P321R, V212I, L334E (Hordeum vulgare, UniProt O48604, L334E/L353M/P321R/V212I); experiment: HPPD activity assay, Hordeum HPPD mutant L353M, P321R, V212I, L334E; conditions: normalized on wildtype
# T4 construct: His6; made in house; host or cells: E. coli BL21 (DE3)
# T4 sequence (O48604 whole entry R146V/R147D/R148G/A164G/V212I/P321R/L334E/L353M): as the sequence (O48604 whole entry R146V/R147D/R148G/A164G) above, with V212I, P321R, L334E, L353M counted along it
# Procedure: as §1
# as §2, with “The reaction is allowed to proceed for 120 min at room temperature. The reaction is stopped by addition of 100 μl of 4.5 M phosphoric acid.” left out
# as §3, §4
# [5] = target: T5, Hordeum HPPD variant V212L (Hordeum vulgare, UniProt O48604, A164G/R146V/R147D/R148G/V212L); experiment: HPPD activity assay, Hordeum HPPD mutant V212L; conditions: normalized on wildtype
# T5 construct: His6; made in house; host or cells: E. coli BL21 (DE3)
# T5 sequence (O48604 whole entry R146V/R147D/R148G/A164G/V212L): as the sequence (O48604 whole entry R146V/R147D/R148G/A164G) above, with V212L counted along it
# Procedure: as §1
# as §2, with “The reaction is allowed to proceed for 120 min at room temperature. The reaction is stopped by addition of 100 μl of 4.5 M phosphoric acid.” left out
# as §3, §4
# [6] = target: T6, Arabidopsis HPPD variant M335H, P336A, E363Q (Arabidopsis thaliana, UniProt P93836, E363Q/M335H/P336A); experiment: HPPD activity assay, Arabidopsis HPPD mutant M335H, P336A, E363Q; conditions: normalized on wildtype
# T6 construct: His6 (N); made in house; host or cells: E. coli BL21 (DE3)
# T6 sequence (P93836 whole entry M335H/P336A/E363Q): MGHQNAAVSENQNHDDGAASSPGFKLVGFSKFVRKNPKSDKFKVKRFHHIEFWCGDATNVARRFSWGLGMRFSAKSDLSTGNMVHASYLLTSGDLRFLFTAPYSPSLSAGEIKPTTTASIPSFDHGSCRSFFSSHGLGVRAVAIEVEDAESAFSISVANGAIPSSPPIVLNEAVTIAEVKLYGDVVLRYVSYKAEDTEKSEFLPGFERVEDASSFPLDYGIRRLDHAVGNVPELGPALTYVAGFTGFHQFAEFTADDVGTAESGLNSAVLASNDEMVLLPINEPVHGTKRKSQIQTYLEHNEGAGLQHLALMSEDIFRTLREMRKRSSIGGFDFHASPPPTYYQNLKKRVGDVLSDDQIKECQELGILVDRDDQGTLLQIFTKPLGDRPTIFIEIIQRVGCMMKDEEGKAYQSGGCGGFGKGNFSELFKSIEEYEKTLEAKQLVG
# Procedure: as §1
# as §2, with “The reaction is allowed to proceed for 120 min at room temperature. The reaction is stopped by addition of 100 μl of 4.5 M phosphoric acid.” left out
# as §3, §4
# [7] = Hordeum HPPD Wild-type, normalized on wildtype (Table 10)
# [8] = Hordeum HPPD, normalized on Hordeum HPPD (Table 7)
compound,measurement,setting,value
"CC1=NOC(c2c(Cl)ccc(C3=C(O)c4ncccc4N(CC(F)F)S3(=O)=O)c2Cl)C1 (centres unmarked) [Inhibitor 1, 3-[2,4-dichloro-3-(3-methyl-4,5-dihydroisoxazol-5-yl)phenyl]-1-(2,2-difluoroethyl)-2,2-dioxo-pyrido[3,2-c]thiazin-4-ol]",Normalized tolerance index (TI),[1]; [7],1
same,Ki,[1]; Hordeum HPPD,2.7 nM
same,Normalized tolerance index (TI),[1]; [8],1
same,TI (tolerance index),[1]; Hordeum HPPD,1.19E−3
same,Normalized tolerance index (TI),Rhodococcus HPPD1,40.1
same,Normalized tolerance index (TI),[2],1.6
same,Normalized tolerance index (TI),[3],2.5
same,Normalized tolerance index (TI),[4],2.4
same,Normalized tolerance index (TI),[5],2.6
same,Normalized tolerance index (TI),[6],3
"O=S1(=O)C(c2c(Cl)cc(Cl)nc2Cl)=C(O)c2ncccc2N1CC(F)F [Inhibitor 2, 1-(2,2-difluoroethyl)-2,2-dioxo-3-(2,4,6-trichloro-3-pyridyl)pyrido[3,2-c]thiazin-4-ol]",Normalized tolerance index (TI),[1]; [7],1
same,Ki,[1]; Hordeum HPPD,2.6 nM
same,Normalized tolerance index (TI),[1]; [8],1
same,TI (tolerance index),[1]; Hordeum HPPD,1.13E−3
same,Normalized tolerance index (TI),Rhodococcus HPPD1,17.1
same,Normalized tolerance index (TI),[2],3.2
same,Normalized tolerance index (TI),[3],3
same,Normalized tolerance index (TI),[4],3.8
same,Normalized tolerance index (TI),[5],0.5
same,Normalized tolerance index (TI),[6],1.2
